Measured values reported in PMC10257291, “Biological activities of extracts and compounds from Thai Kae-Lae (Maclura cochinchinensis (Lour.) Corner)” (BMC Complementary Medicine and Therapies, 2023).
Entries after “also recorded” stand apart in the source; their conditions may differ.

Key:
MCF-7 cells = assay: Cell migration assay (wound healing scratch); assay type: cell-based, human; settings: non-toxic dose, after 24 h of wounding
Protocol: Inhibitory effect of the extracts on cell migration of MCF-7 cells was assessed by wound healing scratch assays. First, cells were plated into 24-well plates and incubated in a CO2 incubator with humidified atmosphere of 5% CO2. After reaching the confluent monolayer forms, a longitudinal wound was created by scratching using SPLTM Scar Scratcher. Then, the non-toxic dose of each extract in complete DMEM medium was added into each well and cell migration was monitored and observed under Leica DM IL LED inverted microscopy and the images of cell-free area were captured at 0, 6, 12, and 24 h after wounding, then measured using ImageJ software. The percentage of wound width was calculated by the following formula:6 Woundwidth(%)=(Cell-[…] Where “Cell-free […]” is the cell-free area at any time point of imaging while “Cell-free area0.h” is the cell-free area at the beginning of wounding.

FRAP assay = settings: compared in words
Protocol: Briefly, sample (20 μL) was mixed with FRAP solution (180 μL). The combined mixture was incubated at room temperature (25 °C) in the dark for 5 min before assessing the UV absorbance was measured at 595 nm with a microplate reader (Beckman CoulterDTX880, Fullerton, CA, USA). The findings were described as equivalent concentration (EC1). L-ascorbic acid served as a positive control. All experiments were conducted in triplicate.

WT1 protein [1] = assay: WT1 protein expression by Western blot in KG-1a cells; assay type: cell-based, human; settings: IC20 value, 48 h, vs vehicle control
Protocol: (§1) Leukaemic stem cells (KG-1a) and leukaemic cells (EoL-1 and K562) were used as cell models which overexpressed WT1 protein expression. Cells were treated with crude fractional extracts and active compounds at a 20% growth inhibition (IC20 value) of each extract. Following 48-h of incubation, cells were washed. The whole protein was extracted using RIPA buffer. The protein concentration was determined by the Pierce™ BCA Protein Assay Kit (ThermoFisher Scientific, IL, USA). Extracted protein sample at 30 − 50 μg was loaded to 12% SDS-PAGE and then transferred to PVDF membranes. The method was done as previously described. The specific protein bands were determined by Luminata™ Forte Western HRP substrate (Merck, Darmstadt, Germany) and exposed to X-ray film (Sakura, Japan). Quantity One 1-D Analysis software (Bio-Rad, USA) was used to quantify densitometry. The density values of WT1 bands were normalized to GAPDH bands.

DPPH assay = settings: compared in words
Protocol: The DPPH^• scavenging activity of crude fractional extracts and their biological active compounds were investigated using DPPH assay. Briefly, the sample (20 μL) was mixed with 167 μM DPPH solution (180 μL). The combined mixture was incubated at room temperature (25 °C) in the dark for 30 min before assessing the UV absorbance at 520 nm with a microplate reader (Beckman CoulterDTX880, Fullerton, CA, USA). The DPPH^• scavenging activity was presented in terms of the percentage of inhibition that was calculated using the following equation: 2 %DPPH^·inhibition=A-B/A×100 A is the UV absorbance of the mixture in the absence of a sample solution, and B is the UV absorbance of the mixture in the […] of a sample solution. L-ascorbic acid served as a positive control. All experiments were conducted in triplicate.

NO = assay: Nitric oxide measurement in LPS-stimulated RAW 264.7 cells; assay type: cell-based, mouse; settings: sample at IC20 value; vs dexamethasone; LPS 1 μg/mL
Protocol: Mouse monocyte macrophage RAW 264.7 cells (American Type Culture Collection, ATCCTIB-71) were stimulated with lipopolysaccharide (LPS) or phytohemagglutinin (PHA). The LPS treated RAW 264.7 cells served as a vehicle control, of which the NO production, and the secreted cytokines were defined as 100%, whereas a negative control was non-treated RAW 264.7 cells. Dexamethasone (an anti-inflammatory drug) was used as a positive control.
Briefly, 1 × 10^5 cells/well in DMEM were seeded and incubated for 24 h in a CO2 incubator set at 37 °C and 5% CO2/95% humidified air. Then cells were treated with Kae-Lae extracts or purified compounds. Following 2-h of incubation in a CO2 incubator, LPS was added to make a final concentration of 1 μg/mL. After 24 h in a CO2 incubator, the media were removed and centrifuged at 13,500 × g for 10 min. The supernatant was analysed for the level of NO using Total Nitric Oxide Assay kit, according to the manufacturer’s protocol (Invitrogen™, ThermoFisher Scientific, MA, USA). The optical density was measured at 540 nm using a multimode detector (Beckman CoulterDTX880, Fullerton, CA, USA).
NO inhibitions were calculated using the following equation:
3 %NOinhibition=A-B/A×100
A is the optical density of the mixture without the sample, while B is the optical density of the mixture with the sample. Dexamethasone was used as a positive control. […]

EoL-1 cells = assay: Total cell number by trypan blue exclusion, EoL-1 cells; assay type: cell-based, human; settings: IC20 value, 48 h, vs vehicle control
Protocol: (§2) According to the principle of trypan blue exclusion, viable cells with intact membranes can exclude trypan blue dye, while dead cells with compromised membranes are stained by the trypan blue dye solution. A cell suspension and trypan blue dye solution (0.2%) were mixed, and viable and dead cells were counted under microscope using a hemacytometer. Then, the percentage of viable cells was calculated. KG-1a, EoL-1 and K562 cells were cultured with crude fractional extracts and active pure compounds at various concentrations (10 − 20% growth inhibition; IC10 − IC20 values) of each extract for 48 h, at a 20% growth inhibition (IC20 value) of each extract for 24 and 48 h. Following incubation, cells were harvested, and the total cell number was counted using trypan blue exclusion method. Three independent experiments were plotted as a dose–response curve and compared with the vehicle control. Meanwhile, the total cell number of each cell line after fractional extract and pure compound treatments at 24 and 48 h were calculated and plotted as a time-response curve. Slopes from each graph were considered as the rate of cell proliferation.

TNF-α = TNF-α secretion in LPS-stimulated RAW 264.7 cells (ELISA); assay type: cell-based, mouse; settings: sample at IC20 value; vs dexamethasone 1 μg/mL; LPS 1 μg/mL
From the text: Mouse monocyte macrophage RAW 264.7 cells (American Type Culture Collection, […]-71) were stimulated with lipopolysaccharide (LPS) or phytohemagglutinin (PHA). The LPS treated RAW 264.7 cells served as a vehicle control, of which the NO production, and the secreted cytokines were defined as 100%, whereas a negative control was non-treated RAW 264.7 cells. Dexamethasone (an anti-inflammatory drug) was used as a positive control. PBMCs (1 × 10^5 cells/well in RPMI-1640 for IL-2) and Raw cells (1 × 10^5 cells/well in DMEM for TNF-α) were seeded for 24 h in a CO2 incubator set at 37 °C and 5% CO2/95% humidified air. Then cells were treated with […] fractional extracts (IC20 value) or pure compounds (IC20 value), or dexamethasone (1 μg/mL) were added. […] After 24 h, the media were removed and centrifuged at 13,500 × g for 10 min and 100 μL of the supernatant was analysed by the protocol of R&D Systems, Minneapolis, MN, USA using ELISA technique. The absorbance was measured at 450 nm and corrected with the reference wavelength of 570 nm (Beckman CoulterDTX880, Fullerton, CA, USA). Viability of PBMCs and RAW 264.7 cells was also determined using MTT assay as described previously. IL-2 and TNF-α secretion inhibitions were calculated as bellow:4 %Cytokineinhibition=A-B/A×100 A is the optical density of the mixture without the sample, while B is the optical density of the mixture with the sample. […]

KG-1a cells [2] = assay: Rate of proliferation, KG-1a cells; assay type: cell-based, human; settings: for decrease of rate of proliferation, KG-1a cells: IC20 value, 24 and 48 h (time-response), vs control; for rate of cell proliferation, KG-1a cells (in words): concentrations IC10 − IC20 values, 48 h
Protocol: as §2

WT1 protein [3] = assay: WT1 protein expression by Western blot in K562 cells; assay type: cell-based, human; settings: IC20 value, 48 h, vs vehicle control
Protocol: as §1

KG-1a cells [4] = assay: Total cell number by trypan blue exclusion, KG-1a cells; assay type: cell-based, human; settings: IC20 value, 48 h, vs vehicle control
Protocol: as §2

WT1 protein [5] = assay: WT1 protein expression by Western blot in EoL-1 cells; assay type: cell-based, human; settings: IC20 value, 48 h, vs vehicle control
Protocol: as §1

Row | SMILES | wound width (MCF-7 cells) | EC1 (FRAP antioxidant activity) (FRAP assay) | suppression of WT1 protein expression in KG-1a cells (WT1 protein [1]) | DPPH• inhibition (DPPH assay) | NO inhibition (NO) | decrease of total cell number, EoL-1 cells (EoL-1 cells) | TNF-α inhibition (TNF-α) | decrease of rate of proliferation, KG-1a cells (KG-1a cells [2]) | rate of cell proliferation, KG-1a cells (in words) (KG-1a cells [2]) | suppression of WT1 protein expression in K562 cells (WT1 protein [3]) | decrease of total cell number, KG-1a cells (KG-1a cells [4]) | suppression of WT1 protein expression in KG-1a cells (WT1 protein [1]; listed as resveratrol) | suppression of WT1 protein expression in EoL-1 cells (WT1 protein [5]) | suppression of WT1 protein expression in EoL-1 cells (WT1 protein [5]; listed as resveratrol)
1 | O=c1c(O)c(-c2ccc(O)cc2O)oc2cc(O)cc(O)c12 [Morin, 2’,3,4’,5,7-pentahydroxyflavonone] | 60.5 ± 3.8% | comparable TEAC and EC1 values with those of ascorbic acid | 32.89 ± 8.76% | significantly more potent than ascorbic acid | – | – | – | – | – | – | – | – | – | –
2 | O=c1c(O)c(-c2ccc(O)c(O)c2)oc2cc(O)cc(O)c12 [Quercetin, quercetin] | – | comparable TEAC and EC1 values with those of ascorbic acid | – | significantly more potent than ascorbic acid | potent inhibitory activities against NO; also recorded: significantly more potent inhibition of IL-2, TNF-α, and NO than dexamethasone | 23.25% | significantly more potent inhibition of IL-2, TNF-α, and NO than dexamethasone | significantly decreasing rates of proliferation | significantly decreasing rate of cell proliferation | – | – | – | – | –
3 | Oc1ccc(/C=C/c2cc(O)cc(O)c2)cc1 [Resveratrol, resveratrol] | 32.8 ± 0.7% | – | – | – | – | 74.14% | – | 86.02% | significantly decreasing rate of cell proliferation | 53.78 ± 4.28% | 39.23% | 60.27 ± 11.44% | 76.73% | 76.73 ± 4.08%
